# Where “and” joins values, the source holds several entries; their conditions need not be identical. Equal values may be shown once. Read-outs that look alike come from different tables or passages of the source.
# How the values were obtained:
# STING R232 = STING R232 (Homo sapiens, UniProt Q86WV6, H232R); assay: Thermal shift binding assay (differential scanning fluorimetry)
# Method: Each sample was prepared in a total volume of 40 μL that contained a 5× final concentration of SYPRO orange (Invitrogen, Carlsbad, CA, USA) in buffer (20 mM of HEPES pH 7.5, 150 mM of NaCl, 1 mM of DTT, and 1 mM of MgCl2) and 4 μM of STING C-terminal domain protein with and without a test article. […] The resulting fluorescence intensity from the raw dissociation curve data were used to determine the melting temperature for STING protein alone or with a compound. Melting temperature from protein alone was then subtracted from all melting temperatures of protein in the presence of compound, and a resulting melting temperature vs. compound concentration provided apparent Kd values as generated using a sigmoidal dose–response (variable slope) equation in GraphPadPrism version 8.0 (GraphPad Software, Boston, MA, USA).
# [1] = test system: primary human immature dendritic cells; assay: Activation of primary human immature dendritic cells (CD83/CD86 flow cytometry); format: cell-based; details: for EC50: Homo sapiens, Dendritic cell, iDCs, 72 h after stimulation
# Description: Frozen human PBMCs (100 × 10^6 cells) were obtained from Stem Cell Technologies (Kent, WA, USA). Monocytes were purified from PBMCs using a CD14^+ pan-monocyte-negative isolation kit and an LS column (Miltenyi Biotec, Bergisch Gladbach, Germany). Magnetically labeled non-target cells were depleted by retaining them within a MACS column in the magnetic field of a MACS Separator, while highly purified unlabeled CD1 D16^− cells were collected and used to generate dendritic cells. To obtain immature monocyte-derived dendritic cells (iMDDCs), enriched monocytes were cultured in Mo-DC differentiation medium (Miltenyi Biotec) supplemented with human IL-4 (250 IU/mL, Miltenyi Biotec) and human GM-CSF (800 IU/mL, Miltenyi Biotec) at 37 °C in a T-150 flask in a 5% CO2 humidified incubator for 5 days; fresh media was replenished every 2–3 days.
# […] An aliquot of iMDDCs was also cultured in maturation media for 24–48 h and used as a control containing RPMI 1640, 10% FBS, 2 mM L-glutamine, and human TNF-α (6000 IU/mL, Miltenyi Biotec). The supernatant from the plate was frozen to assess cytokine production, and cells were analyzed via flow cytometry.
# Cells were incubated with phosphate-buffered saline (PBS) containing 2% FBS and 2 mM of EDTA (FACS buffer) supplemented with 2 mg/mL of normal human IgG on ice for 15 min to block Fc receptors. The cell suspension was then incubated with a predetermined optimal concentration of the appropriate fluorescent dye-labeled monoclonal antibodies (mAbs) against human cell surface markers on ice for 30 min. The fluorescent dye-labeled mAbs against human cell surface molecules included anti-CD209, anti-CD14, anti-CD11c, anti-CD40, anti-HLA-DR, anti-CD86, and anti-CD83 (BD Biosciences, Franklin Lakes, NJ, USA or BioLegend, San Diego, CA, USA). In addition, a fixable live/dead stain (Thermo Fisher Scientific) at a dilution of 1:1000 was added to exclude dead cells. After several washes with FACS buffer, cells were resuspended in FACS buffer and analyzed on an Attune Nxt flow cytometer (Thermo Fisher Scientific) with FlowJo v10 software (BD Biosciences). An aliquot of the cells to be analyzed served as controls by using “fluorescent minus-one” to establish gates and determine the frequency of positively stained cells. Ultra-comp beads (Thermo Fisher Scientific) were used as single-stained controls to set up compensation on the flow cytometer.
# [2] = test system: THP-1 cells (STING isoform HAQ); assay: THP-1 cytokine (IP-10) release assay; format: cell-based, human; details: overnight incubation, THP-1 (STING HAQ)
# Method: THP-1 cells (American Type Culture Collection, Manassas, VA, USA) were maintained in maintenance media consisting of RPMI-1640, 1% Pen-Strep, 1% NEAA, 1% Glutagro™, 1% HEPES (all Corning), and 10% FBS (Sigma-Aldrich). On the day of dosing, cells were pelleted and resuspended in fresh media to a density of 1.6 × 10^6 cells/mL. An aliquot of […] was added to each well of a 96-well U-bottom plate for a total of 1.0 × 10^5 cells per well, and the final volume was adjusted to 150 µL using fresh media. Compound dilutions were prepared in maintenance media, and 50 µL of diluted compound were added to wells in duplicate. Cells were incubated with the compound overnight at 37 °C. The next day, plates were centrifuged, and the supernatant was collected in a 96-well flat-bottom plate. Human IP-10 was detected using the ProQuantum Immunoassay kit (Thermo Fisher Scientific, Waltham, MA, USA). Data were analyzed using a standard curve and reported as fold-increase over background. Graphs were generated using GraphPad™ Prism version 8.0.
# MC38-hPD-L1 tumors = assay: MC38-hPD-L1 mouse colon carcinoma model; format: in vivo; details: 0.5 mg/kg SC, QW (2×)
# Description: Female C57/BL6 mice (Shanghai Lingchang Biotechnology Co., Ltd., Shanghai, China) were 5 to 8 weeks old with a body weight > 16 g at the time of inoculation. Animals were housed and fed as described above.
# After inoculation with tumor cells, the animals were checked daily for morbidity and mortality. During routine monitoring, the animals were checked for any effects of tumor growth or test articles on behavior such as mobility, food and water consumption, body weight gain/loss (body weights were measured twice per week after randomization), eye/hair matting, and any other abnormalities. Tumor volumes were measured and calculated as described above.
# Each group consisted of 10 animals. The control group was administered 5 mg/kg isotype control antibody in a volume of 10 μL/g of IP, BIW for 2.5 weeks, 5 doses total. The atezolizumab-treated group was administered 5 mg/kg in a volume of 10 μL/g of IP, BIW for 2.5 weeks, 5 doses total. […] Dosing started when average tumor volumes were 70 mm^3.
# [3] = test system: phosphodiesterase I from Crotalus adamanteus venom (SVPD); assay: in vitro; details: pH 8
# subcutaneous CT26 tumors = assay: CT26 mouse colon carcinoma model
# Method: Each mouse was inoculated subcutaneously in the right flank with 3 × 10^5 CT26 cells (in 0.1 mL PBS) for tumor development.
# PBS was used as the vehicle control. […] Vehicles and test compounds were administered IT q3d × 3 in a volume of 0.05 mL. SC administration was performed between the shoulder blades at a dosing volume of 10 mL/kg. Tumors were measured twice a week in two dimensions using calipers, and volume was calculated using Formula (1):Tumor Volume (mm^3) = 0.5 (w^2 × l)(1)
# Here, w = width and l = length, in mm, of a tumor.
# Tumor weight was estimated with the assumption that 1 mg is equivalent to 1 mm^3 of tumor volume.
# Animals were euthanized when (1) their tumor reached the endpoint volume of 2000 mm^3, (2) their body weight loss exceeded 30%, or (3) on the last day of the study, whichever came first. The TTE for analysis was calculated for each mouse by the following Equation (2):TTE = (log10 (endpoint volume) − b)/m(2)
# TTE is expressed in days, endpoint volume is expressed in mm^3, b is the intercept, and m is the slope of the line obtained via linear regression of a log-transformed tumor growth data set. […] Animals were weighed on Days 1–5, then twice weekly for the duration of the study.
# [4] = test system: EMT-6 murine mammary carcinoma; assay: Re-challenge with EMT-6 of mice with complete CT26 tumor regression; format: in vivo, mouse; details: Figure 5D; previously 100 μg IT × 3; EMT-6 right flank
# Method: Ten naïve, age-matched female BALB/c mice were used as controls. […] Tumor growth was measured as described above.
# Sequence of STING R232 (Q86WV6 139-379 H232R): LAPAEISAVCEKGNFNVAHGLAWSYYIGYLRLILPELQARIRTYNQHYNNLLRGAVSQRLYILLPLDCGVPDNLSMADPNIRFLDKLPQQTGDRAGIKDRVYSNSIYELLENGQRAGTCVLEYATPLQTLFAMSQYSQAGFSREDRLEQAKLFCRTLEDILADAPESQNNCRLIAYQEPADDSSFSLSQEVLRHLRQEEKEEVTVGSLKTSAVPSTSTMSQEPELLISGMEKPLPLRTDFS
smiles,measurement,setting,value
CO[C@H]1[C@H]2OP(=O)(O)OC[C@@]34C[C@@H]3[C@@H](n3cnc5c(N)ncnc53)[C@H](O)[C@@H]4O[P@](=O)(S)OC[C@H]1O[C@H]2n1cnc2c(=O)[nH]c(N)nc21 [ALG-031048],Kd,STING R232,2.71 µM
same,Maximum temperature shift,"STING R232; STING R232 thermal shift assay, mean±standard deviation",13.8 °C and 13.8±2.98 °C
same,EC50,"[1]; read-out: EC50 CD83, Immature Dendritic Cells",5.3 µM
same,EC50,"[1]; read-out: EC50 CD86, Immature Dendritic Cells",17.8 µM
same,Surface expression of CD86 and CD83 (in words),"[1]; iDCs and, to a lesser degree, monocytes, 24 and 72 h",upregulated the surface expression of CD86 and CD83
same,Release of IP-10 in THP-1 cells,[2],dose-dependent release of IP-10
same,Tumor Reduction vs. Group 1 (vehicle),MC38-hPD-L1 tumors; Day 11,40.3%
same,TV on Day 11 (Median),"MC38-hPD-L1 tumors; n = 10, vehicle 2268",1353 mm^3
same,remaining at 24 h,[3],100%
same,Animals with complete response (TV < 10 mm^3) at end of study,"subcutaneous CT26 tumors; CT26, 4 mg/kg SC, 3 × q3d",one
same,Animals with tumors regressed and undetectable at end of study,"subcutaneous CT26 tumors; Table 2 study, 100 μg IT, three doses",9 of 10
same,EMT-6 tumor growth after re-challenge,[4],formed in these animals with kinetics comparable to those of naïve animals

# — paper PMC10671074, “Tumor Regression upon Intratumoral and Subcutaneous Dosing of the STING Agonist ALG-031048 in Mouse Efficacy Models” (International Journal of Molecular Sciences, 2023)
